Results from paper PMC6273036, “N-Alkoxyphenylhydroxynaphthalenecarboxamides and Their Antimycobacterial Activity” (Molecules, 2016).
≈ marks a conversion by molar mass, not a printed value.

What was measured:
[1] = system: Mycobacterium tuberculosis H37Ra ATCC 25177; test: In vitro antimycobacterial evaluation (alamarBlue, MIC) against M. tuberculosis; assay type: cell-based; details: 168 h, M. tuberculosis H37Ra ATCC 25177, MIC = 90% or greater (IC90) reduction of growth, 7 days
Experimental: The evaluation of the in vitro antimycobacterial activity of the compounds was performed against Mycobacterium tuberculosis H37Ra ATCC 25177 (MT), M. kansasii DSM 44162 (MK) and M. smegmatis ATCC 700084 (MS), see Table 1. To lower risk and make manipulation in the laboratory easier, surrogate model pathogens for M. tuberculosis can be used in laboratory studies. Avirulent M. tuberculosis strain H37Ra is very closely related to and has similar pathology as human-infecting M. tuberculosis strains, making it a good model for study especially because of the lower risk for laboratory workers. M. kansasii, the most virulent of the NTM, causes nontuberculous mycobacterial lung infections, which are now very common, and can be indistinguishable from tuberculosis. M. smegmatis is an ideal representative of a fast-growing nonpathogenic microorganism, particularly useful in studying basic cellular processes of special relevance to pathogenic mycobacteria. Therefore additionally M. kansasii and M. smegmatis were chosen as model species for screening of prospective antimycobacterial drugs to control mycobacterial diseases. The potency of the compounds was expressed as the minimum inhibitory concentration (MIC) that is defined for mycobacteria as 90% or greater (IC90) reduction of growth in comparison with the control.
Mycobacterium tuberculosis H37Ra ATCC 25177 was grown in Middlebrook broth (MB), supplemented with Oleic-Albumin-Dextrose-Catalase (OADC) supplement (Becton, Dickinson & Comp., Franklin Lakes, NJ, USA) and mycobactin J (2 μg/mL). At log phase growth, a culture sample (10 mL) was centrifuged at 15,000 rpm/20 min using a bench top centrifuge (Model CR 4-12, Jouan Inc., Winchester, VA, USA). Following the removal of the supernatant, the pellet was washed in fresh Middlebrook 7H9GC broth and re-suspended in fresh, ODAC-supplemented MB (10 mL). The turbidity was adjusted to match McFarland standard No. 1 (3 × 10^8 cfu) with MB broth. A further 1:20 dilution of the culture was then performed in MB broth. The antimicrobial susceptibility of M. tuberculosis was investigated in a 96-well plate format. In these experiments, sterile deionised water (300 µL) was added to all outer-perimeter wells of the plates to minimize evaporation of the medium in the test wells during incubation. Each evaluated compound (100 µL) was incubated with M. tuberculosis (100 µL). Dilutions of each compound were prepared in duplicate. For all synthesized compounds, final concentrations ranged from 1000 μg/mL to 8 μg/mL. All compounds were dissolved in DMSO, and subsequent dilutions were made in supplemented MB. The plates were sealed with parafilm and incubated at 37 °C for 7 days. Following incubation, a 10% addition of alamarBlue (AbD Serotec, Kidlington, UK) was mixed into each well, and readings at 570 nm and 600 nm were taken, initially for background subtraction and subsequently after 24 h re-incubation. The background subtraction is necessary for strongly coloured compounds, where the colour may interfere with the interpretation of any colour change. For non-interfering compounds, a blue colour in the well was interpreted as the absence of growth, and a pink colour was scored as growth.
The minimum inhibitory concentration (MIC) was defined as the lowest concentration of the compound at which no visible bacterial growth was observed, i.e., the MIC is the lowest concentration that prevented a visual colour change from blue to pink. MIC is defined for mycobacteria as 90% or greater (IC90) reduction of growth in comparison with the control. The MIC/IC90 value is routinely and widely used in bacterial assays and is a standard detection limit according to the Clinical and Laboratory Standards Institute (CLSI, www.clsi.org). Rifampicin and isoniazid (Sigma-Aldrich) were used as the standards as they are clinically used antimycobacterial drugs.

M. smegmatis ATCC 700084 = test: In vitro antimycobacterial evaluation (broth dilution micro-method, MIC) against M. smegmatis; assay type: cell-based; details: Mycolicibacterium smegmatis, ATCC700084, 72 h; Mycobacterium smegmatis ATCC 700084; MIC = IC90; 3 days incubation, visual
[2] = system: Mycobacterium kansasii DSM 44162; test: In vitro antimycobacterial evaluation (broth dilution micro-method, MIC) against M. kansasii; assay type: cell-based; details: DSM44162, 168 h, M. kansasii DSM 44162, MIC = IC90, 7 days incubation, visual
[3] = system: human monocytic leukemia THP-1 cells; test: In vitro antiproliferative assay (WST-1); details: THP-1, 24 h, read-out: IC50 (antiproliferative activity)
Experimental: Human monocytic leukemia THP-1 cells were used for in vitro antiproliferative assay. Cells were obtained from the European Collection of Cell Cultures (ECACC, Salisbury, UK) and routinely cultured in RPMI 1640 medium supplemented with 10% fetal bovine serum, 2% L-glutamine, 1% penicillin and streptomycin at 37 °C with 5% CO2. Cells were passaged at approximately one-week intervals. Antiproliferative activity of the compounds was determined using a Water Soluble Tetrazolium Salts-1 (WST-1, 2-(4-iodophenyl)-3-(4-nitrophenyl)-5-(2,4-disulfophenyl)-2H-tetrazolium) assay kit (Roche Diagnostics, Mannheim, Germany) according to the manufacturer’s instructions. The tested compounds were dissolved in DMSO and added in five increasing concentrations (0.37, 1.1, 3.3, 10 and 30 μM) to the cell suspension in the culture RPMI 1640 medium. The maximum concentration of DMSO in the assays never exceeded 0.1%. Subsequently, the cells were incubated for 24 h at 37 °C with 5% CO2. For WST-1 assays, cells were seeded into 96-well plates (5 × 10^4 cells/well in 100 μL culture medium) in triplicate in serum-free RPMI 1640 medium, and measurements were taken 24 h after the treatment with the compounds. The median inhibition concentration values, IC50, were deduced through the production of a dose-response curve. All data were evaluated using GraphPad Prism 5.00 software (GraphPad Software, San Diego, CA, USA).

Row | Compound | MIC [1] [µM] | MIC (M. smegmatis ATCC 700084) [µM] | MIC [2] [µM] | IC50 [3] [µM]
1 | CCCOc1cccc(NC(=O)c2c(O)ccc3ccccc23)c1 [Compound 4b, 2-Hydroxy-N-(3-propoxyphenyl)naphthalene-1-carboxamide] | 46 (≈ 14.8 µg/mL) | 398 (≈ 128 µg/mL) | 199 (≈ 64 µg/mL) | 8.97 ± 0.34
2 | O=C(Nc1ccccc1)c1c(O)ccc2ccccc12 [Compound 1, 2-Hydroxy-N-phenylnaphthalene-1-carboxamide] | 94 (≈ 24.7 µg/mL) | – | 15 (≈ 3.95 µg/mL) | > 30
3 | CCOc1ccc(NC(=O)c2ccc3ccccc3c2O)cc1 [Compound 10c, N-(4-Ethoxyphenyl)-1-hydroxynaphthalene-2-carboxamide] | 813 (≈ 250 µg/mL) | 832 (≈ 256 µg/mL) | 832 (≈ 256 µg/mL) | –
4 | CCOc1cccc(NC(=O)c2c(O)ccc3ccccc23)c1 [Compound 3b, N-(3-Ethoxyphenyl)-2-hydroxynaphthalene-1-carboxamide] | 813 (≈ 250 µg/mL) | 416 (≈ 128 µg/mL) | 208 (≈ 63.9 µg/mL) | –
5 | CC(C)Oc1ccc(NC(=O)c2ccc3ccccc3c2O)cc1 [Compound 13c, 1-Hydroxy-N-[4-(prop-2-yloxy)phenyl]naphthalene-2-carboxamide] | 778 (≈ 250 µg/mL) | 796 (≈ 256 µg/mL) | 49 (≈ 15.7 µg/mL) | 9.39 ± 1.39
6 | COc1ccc(NC(=O)c2c(O)ccc3ccccc23)cc1 [Compound 2c, 2-hydroxy-N-(4-methoxyphenyl)naphthalene-1-carboxamide] | 852 (≈ 250 µg/mL) | – | – | –
7 | CCCCOc1ccccc1NC(=O)c1ccc2ccccc2c1O [Compound 12a, N-(2-Butoxyphenyl)-1-hydroxynaphthalene-2-carboxamide] | 745 (≈ 250 µg/mL) | 763 (≈ 256 µg/mL) | 763 (≈ 256 µg/mL) | –
8 | CCCCOc1ccc(NC(=O)c2ccc3ccccc3c2O)cc1 [Compound 12c, N-(4-Butoxyphenyl)-1-hydroxynaphthalene-2-carboxamide] | 745 (≈ 250 µg/mL) | 763 (≈ 256 µg/mL) | 23 (≈ 7.71 µg/mL) | > 30
9 | O=C(Nc1ccccc1)c1ccc2ccccc2c1O [Compound 8, 1-Hydroxy-N-phenylnaphthalene-2-carboxamide] | 97 (≈ 25.5 µg/mL) | 243 (≈ 64 µg/mL) | 15 (≈ 3.95 µg/mL) | > 30
10 | NNC(=O)c1ccncc1 [INH, isoniazid, reference compound] | 58 (≈ 7.95 µg/mL) | – | – | > 30
11 | COc1cccc(NC(=O)c2ccc3ccccc3c2O)c1 [Compound 9b, 1-hydroxy-N-(3-methoxyphenyl)naphthalene-2-carboxamide] | 852 (≈ 250 µg/mL) | 873 (≈ 256 µg/mL) | 873 (≈ 256 µg/mL) | –
12 | CCCCOc1ccc(NC(=O)c2c(O)ccc3ccccc23)cc1 [Compound 5c, N-(4-Butoxyphenyl)-2-hydroxynaphthalene-1-carboxamide] | 745 (≈ 250 µg/mL) | 763 (≈ 256 µg/mL) | 95 (≈ 31.9 µg/mL) | > 30
13 | CCCOc1ccccc1NC(=O)c1ccc2ccccc2c1O [Compound 11a, 1-Hydroxy-N-(2-propoxyphenyl)naphthalene-2-carboxamide] | 778 (≈ 250 µg/mL) | 796 (≈ 256 µg/mL) | 24 (≈ 7.71 µg/mL) | –
14 | CO[C@H]1/C=C/O[C@@]2(C)Oc3c(C)c(O)c4c(O)c(c(/C=N/N5CCN(C)CC5)c(O)c4c3C2=O)NC(=O)/C(C)=C\C=C\[C@H](C)[C@H](O)[C@@H](C)[C@@H](O)[C@@H](C)[C@H](OC(C)=O)[C@@H]1C [RIF, rifampicin, reference compound] | 10 (≈ 8.23 µg/mL) | 19 (≈ 15.6 µg/mL) | 0.15 (≈ 0.123 µg/mL) | > 30
15 | CC(C)Oc1ccccc1NC(=O)c1c(O)ccc2ccccc12 [Compound 6a, 2-Hydroxy-N-[2-(prop-2-yloxy)phenyl]naphthalene-1-carboxamide] | 31 (≈ 9.96 µg/mL) | 796 (≈ 256 µg/mL) | 99 (≈ 31.8 µg/mL) | > 30
16 | CCOc1cccc(NC(=O)c2ccc3ccccc3c2O)c1 [Compound 10b, N-(3-Ethoxyphenyl)-1-hydroxynaphthalene-2-carboxamide] | 813 (≈ 250 µg/mL) | 832 (≈ 256 µg/mL) | 52 (≈ 16 µg/mL) | 3.02 ± 0.96
17 | CCCOc1ccccc1NC(=O)c1c(O)ccc2ccccc12 [Compound 4a, 2-Hydroxy-N-(2-propoxyphenyl)naphthalene-1-carboxamide] | 37 (≈ 11.9 µg/mL) | 796 (≈ 256 µg/mL) | 99 (≈ 31.8 µg/mL) | > 30
18 | CCCOc1ccc(NC(=O)c2ccc3ccccc3c2O)cc1 [Compound 11c, 1-Hydroxy-N-(4-propoxyphenyl)naphthalene-2-carboxamide] | 778 (≈ 250 µg/mL) | 796 (≈ 256 µg/mL) | 24 (≈ 7.71 µg/mL) | > 30
19 | CC(C)Oc1cccc(NC(=O)c2c(O)ccc3ccccc23)c1 [Compound 6b, 2-Hydroxy-N-[3-(prop-2-yloxy)phenyl]naphthalene-1-carboxamide] | 778 (≈ 250 µg/mL) | 398 (≈ 128 µg/mL) | 199 (≈ 64 µg/mL) | 8.84 ± 0.22
20 | CC(C)Oc1cccc(NC(=O)c2ccc3ccccc3c2O)c1 [Compound 13b, 1-Hydroxy-N-[3-(prop-2-yloxy)phenyl]naphthalene-2-carboxamide] | 389 (≈ 125 µg/mL) | 796 (≈ 256 µg/mL) | 796 (≈ 256 µg/mL) | 4.32 ± 0.74
21 | COc1ccc(NC(=O)c2ccc3ccccc3c2O)cc1 [Compound 9c, 1-hydroxy-N-(4-methoxyphenyl)naphthalene-2-carboxamide] | 852 (≈ 250 µg/mL) | 873 (≈ 256 µg/mL) | 873 (≈ 256 µg/mL) | –
22 | CCC(C)Oc1ccc(NC(=O)c2ccc3ccccc3c2O)cc1 (centres unmarked) [Compound 14c, N-[4-(But-2-yloxy)phenyl]-1-hydroxynaphthalene-2-carboxamide] | 745 (≈ 250 µg/mL) | 12 (≈ 4.02 µg/mL) | 23 (≈ 7.71 µg/mL) | 3.41 ± 0.41
23 | CCOc1ccccc1NC(=O)c1ccc2ccccc2c1O [Compound 10a, N-(2-Ethoxyphenyl)-1-hydroxynaphthalene-2-carboxamide] | 813 (≈ 250 µg/mL) | 832 (≈ 256 µg/mL) | 832 (≈ 256 µg/mL) | –
24 | COc1ccccc1NC(=O)c1c(O)ccc2ccccc12 [Compound 2a, 2-hydroxy-N-(2-methoxyphenyl)naphtha-lene-1-carboxamide] | 852 (≈ 250 µg/mL) | 873 (≈ 256 µg/mL) | 873 (≈ 256 µg/mL) | –
25 | CCCCOc1ccccc1NC(=O)c1c(O)ccc2ccccc12 [Compound 5a, N-(2-Butoxyphenyl)-2-hydroxynaphthalene-1-carboxamide] | 745 (≈ 250 µg/mL) | 763 (≈ 256 µg/mL) | 763 (≈ 256 µg/mL) | > 30
26 | COc1cccc(NC(=O)c2c(O)ccc3ccccc23)c1 [Compound 2b, 2-hydroxy-N-(3-methoxyphenyl)naphthalene-1-carboxamide] | 852 (≈ 250 µg/mL) | – | – | –
27 | CCC(C)Oc1ccccc1NC(=O)c1ccc2ccccc2c1O (centres unmarked) [Compound 14a, N-[2-(But-2-yloxy)phenyl]-1-hydroxynaphthalene-2-carboxamide] | 745 (≈ 250 µg/mL) | 763 (≈ 256 µg/mL) | 47 (≈ 15.8 µg/mL) | 9.03 ± 1.18
28 | CC(C)Oc1ccccc1NC(=O)c1ccc2ccccc2c1O [Compound 13a, 1-Hydroxy-N-[2-(prop-2-yloxy)phenyl]naphthalene-2-carboxamide] | 778 (≈ 250 µg/mL) | 796 (≈ 256 µg/mL) | 796 (≈ 256 µg/mL) | –
29 | CCC(C)Oc1ccccc1NC(=O)c1c(O)ccc2ccccc12 (centres unmarked) [Compound 7a, N-[2-(But-2-yloxy)phenyl]-2-hydroxynaphthalene-1-carboxamide] | 44 (≈ 14.8 µg/mL) | 763 (≈ 256 µg/mL) | 95 (≈ 31.9 µg/mL) | 8.35 ± 1.25
30 | COc1ccccc1NC(=O)c1ccc2ccccc2c1O [Compound 9a, 1-hydroxy-N-(2-methoxyphenyl)naphtha-lene-2-carboxamide] | 852 (≈ 250 µg/mL) | 873 (≈ 256 µg/mL) | 873 (≈ 256 µg/mL) | –
